Experimental data reported in US10526316B2, “Quinoxaline and pyridopyrazine derivatives as PI3Kβ inhibitors” (Janssen Pharmaceutica NV, priority 2015, dated 2020).
Read-outs that look alike come from different tables or passages of the source.

Columns and labels:
kinase enzymes [1] = molecular target: T1, kinase enzymes (Homo sapiens, UniProt P42336); assay: Enzyme binding assay (KINOMEscan, DiscoveRx), further kinases of Table A; details: PIK3Cα_h
T1 construct: purchased DiscoveRx Corporation, San Diego (contract service, KINOMEscan)
Outline: (§1)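 Binding affinities were measured on the KINOMEscan platform.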

kinase enzymes [2] = molecular target: T2, kinase enzymes (Homo sapiens, UniProt P48736); assay: as above; details: PIK3Cγ_h
T2 construct: purchased DiscoveRx Corporation, San Diego (contract service, KINOMEscan)
Outline: as §1

kinase enzymes [3] = molecular target: T3, kinase enzymes (Homo sapiens, UniProt P42345); assay: as above; details: MTOR_h
T3 construct: purchased DiscoveRx Corporation, San Diego (contract service, KINOMEscan)
Outline: as §1

[4] = test system: Akt phosphorylated at Thr308 in PC-3 cells; assay: Cellular assay: phosphorylation of Akt at Thr308 in PC-3 cells (MSD ELISA); assay type: cell-based; details: PC-3 cells, 60 min compound incubation, MSD ELISA, read-out: IC50 pAkt_Thr308
Outline: (§2)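 After lysis of treated cells (60 min, 37° C, 0.3% DMSO), phospho-Akt levels were measured by MSD electrochemiluminescence ELISA. Potency was derived from concentration-response curves fitted over five concentrations.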

[5] = test system: Akt phosphorylated at Ser473 in PC-3 cells; assay: Cellular assay: phosphorylation of Akt at Ser473 in PC-3 cells (MSD ELISA); assay type: cell-based; details: PC-3 cells, 60 min compound incubation, MSD ELISA, read-out: IC50 pAkt_S473
Outline: as §2

PI3Kβ = molecular target: T4, PI3Kβ (Homo sapiens, UniProt P42338); assay: Enzyme binding assay (KINOMEscan, DiscoveRx); details: PIK3Cβ_h, read-out: Kd PIK3Cβ_h
T4 construct: purchased DiscoveRx Corporation, San Diego (contract service, KINOMEscan)
Outline: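 Kinase binding affinities were measured with KINOMEscan technology. Results are given as Kd, the inhibitor binding constant, in nM.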

PI3Kδ = molecular target: T5, PI3Kδ (Homo sapiens, UniProt O00329); assay: Enzyme binding assay (KINOMEscan, DiscoveRx); details: PIK3Cδ_h
T5 construct: purchased DiscoveRx Corporation, San Diego (contract service, KINOMEscan)
T5 sequence (O00329 1-1044): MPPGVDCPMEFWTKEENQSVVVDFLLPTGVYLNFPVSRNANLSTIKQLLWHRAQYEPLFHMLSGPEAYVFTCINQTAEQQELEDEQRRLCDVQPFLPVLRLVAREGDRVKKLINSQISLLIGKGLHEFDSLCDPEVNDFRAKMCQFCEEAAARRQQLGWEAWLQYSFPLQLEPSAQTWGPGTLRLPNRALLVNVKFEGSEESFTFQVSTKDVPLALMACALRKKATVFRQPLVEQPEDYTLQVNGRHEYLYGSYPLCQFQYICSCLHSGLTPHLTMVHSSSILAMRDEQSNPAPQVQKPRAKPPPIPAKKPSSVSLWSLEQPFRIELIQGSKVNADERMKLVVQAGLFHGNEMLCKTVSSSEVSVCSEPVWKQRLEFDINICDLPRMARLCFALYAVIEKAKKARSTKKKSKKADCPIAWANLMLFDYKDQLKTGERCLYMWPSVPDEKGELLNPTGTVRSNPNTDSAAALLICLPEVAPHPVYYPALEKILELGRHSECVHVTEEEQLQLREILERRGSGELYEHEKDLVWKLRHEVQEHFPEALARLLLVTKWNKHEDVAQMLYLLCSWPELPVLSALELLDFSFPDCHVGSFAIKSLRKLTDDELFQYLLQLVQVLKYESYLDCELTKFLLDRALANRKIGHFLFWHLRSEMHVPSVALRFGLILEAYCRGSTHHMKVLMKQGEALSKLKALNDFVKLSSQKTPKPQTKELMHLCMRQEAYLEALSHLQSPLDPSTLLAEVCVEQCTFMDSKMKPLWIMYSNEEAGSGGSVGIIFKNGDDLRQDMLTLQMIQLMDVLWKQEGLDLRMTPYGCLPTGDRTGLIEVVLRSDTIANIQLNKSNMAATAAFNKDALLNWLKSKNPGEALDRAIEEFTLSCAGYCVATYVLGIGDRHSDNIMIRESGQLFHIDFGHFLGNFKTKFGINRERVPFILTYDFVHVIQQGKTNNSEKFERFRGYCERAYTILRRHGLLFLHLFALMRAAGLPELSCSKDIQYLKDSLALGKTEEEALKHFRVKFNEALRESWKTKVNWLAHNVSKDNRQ
Outline: as §1

T2 sequence (P48736 whole entry): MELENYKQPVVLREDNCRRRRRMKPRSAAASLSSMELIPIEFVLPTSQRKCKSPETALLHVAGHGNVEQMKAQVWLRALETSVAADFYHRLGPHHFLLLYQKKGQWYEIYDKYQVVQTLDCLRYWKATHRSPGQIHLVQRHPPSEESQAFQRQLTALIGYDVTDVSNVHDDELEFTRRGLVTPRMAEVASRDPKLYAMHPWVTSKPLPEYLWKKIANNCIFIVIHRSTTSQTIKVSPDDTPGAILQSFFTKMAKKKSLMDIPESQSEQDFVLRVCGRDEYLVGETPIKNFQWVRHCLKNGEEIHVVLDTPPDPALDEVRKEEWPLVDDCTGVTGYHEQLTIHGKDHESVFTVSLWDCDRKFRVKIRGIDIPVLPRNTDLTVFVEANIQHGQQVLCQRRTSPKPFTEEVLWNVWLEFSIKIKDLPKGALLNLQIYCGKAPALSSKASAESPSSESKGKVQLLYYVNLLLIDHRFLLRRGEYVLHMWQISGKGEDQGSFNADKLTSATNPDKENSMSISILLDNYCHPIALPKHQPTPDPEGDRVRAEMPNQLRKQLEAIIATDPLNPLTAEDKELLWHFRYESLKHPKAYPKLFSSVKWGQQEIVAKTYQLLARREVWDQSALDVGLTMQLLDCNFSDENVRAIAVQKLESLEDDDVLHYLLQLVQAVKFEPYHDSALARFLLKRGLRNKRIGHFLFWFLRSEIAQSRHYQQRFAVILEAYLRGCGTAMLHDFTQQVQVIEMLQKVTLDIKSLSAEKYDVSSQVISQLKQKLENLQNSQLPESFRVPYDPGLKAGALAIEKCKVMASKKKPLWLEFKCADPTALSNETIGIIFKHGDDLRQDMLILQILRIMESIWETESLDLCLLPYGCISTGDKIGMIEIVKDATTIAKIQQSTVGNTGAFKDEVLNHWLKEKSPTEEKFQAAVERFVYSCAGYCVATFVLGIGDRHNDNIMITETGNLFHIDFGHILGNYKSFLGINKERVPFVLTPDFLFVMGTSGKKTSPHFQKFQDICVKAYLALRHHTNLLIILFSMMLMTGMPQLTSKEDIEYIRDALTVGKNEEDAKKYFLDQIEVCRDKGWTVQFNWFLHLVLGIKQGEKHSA
T1 sequence (P42336 whole entry): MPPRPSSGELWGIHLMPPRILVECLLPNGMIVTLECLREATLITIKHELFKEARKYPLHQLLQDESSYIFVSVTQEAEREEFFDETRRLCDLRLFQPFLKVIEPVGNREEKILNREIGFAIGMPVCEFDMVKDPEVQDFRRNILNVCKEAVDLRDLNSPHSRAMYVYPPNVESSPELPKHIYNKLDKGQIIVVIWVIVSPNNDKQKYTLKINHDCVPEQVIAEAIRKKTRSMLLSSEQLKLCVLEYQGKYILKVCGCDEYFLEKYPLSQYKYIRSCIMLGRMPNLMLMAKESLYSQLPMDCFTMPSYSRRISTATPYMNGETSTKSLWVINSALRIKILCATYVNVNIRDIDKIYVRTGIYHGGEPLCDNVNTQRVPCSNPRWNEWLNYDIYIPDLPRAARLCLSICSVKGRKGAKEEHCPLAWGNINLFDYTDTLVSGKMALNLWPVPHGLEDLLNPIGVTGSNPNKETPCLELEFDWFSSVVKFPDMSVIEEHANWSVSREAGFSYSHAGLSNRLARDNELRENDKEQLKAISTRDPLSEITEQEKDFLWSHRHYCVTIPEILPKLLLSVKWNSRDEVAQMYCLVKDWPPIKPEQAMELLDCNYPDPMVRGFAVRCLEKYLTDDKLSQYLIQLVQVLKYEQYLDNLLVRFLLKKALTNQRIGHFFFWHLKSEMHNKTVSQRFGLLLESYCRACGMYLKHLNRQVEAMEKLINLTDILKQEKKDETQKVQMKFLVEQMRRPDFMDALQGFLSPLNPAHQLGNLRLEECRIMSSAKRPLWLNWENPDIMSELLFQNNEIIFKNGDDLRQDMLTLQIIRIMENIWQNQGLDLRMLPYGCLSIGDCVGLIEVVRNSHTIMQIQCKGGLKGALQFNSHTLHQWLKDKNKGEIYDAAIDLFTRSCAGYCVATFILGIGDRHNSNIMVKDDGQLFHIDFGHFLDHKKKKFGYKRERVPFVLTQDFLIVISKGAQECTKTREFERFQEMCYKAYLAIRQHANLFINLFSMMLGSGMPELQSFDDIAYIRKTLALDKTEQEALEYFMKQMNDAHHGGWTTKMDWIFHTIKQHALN
T4 sequence (P42338 whole entry): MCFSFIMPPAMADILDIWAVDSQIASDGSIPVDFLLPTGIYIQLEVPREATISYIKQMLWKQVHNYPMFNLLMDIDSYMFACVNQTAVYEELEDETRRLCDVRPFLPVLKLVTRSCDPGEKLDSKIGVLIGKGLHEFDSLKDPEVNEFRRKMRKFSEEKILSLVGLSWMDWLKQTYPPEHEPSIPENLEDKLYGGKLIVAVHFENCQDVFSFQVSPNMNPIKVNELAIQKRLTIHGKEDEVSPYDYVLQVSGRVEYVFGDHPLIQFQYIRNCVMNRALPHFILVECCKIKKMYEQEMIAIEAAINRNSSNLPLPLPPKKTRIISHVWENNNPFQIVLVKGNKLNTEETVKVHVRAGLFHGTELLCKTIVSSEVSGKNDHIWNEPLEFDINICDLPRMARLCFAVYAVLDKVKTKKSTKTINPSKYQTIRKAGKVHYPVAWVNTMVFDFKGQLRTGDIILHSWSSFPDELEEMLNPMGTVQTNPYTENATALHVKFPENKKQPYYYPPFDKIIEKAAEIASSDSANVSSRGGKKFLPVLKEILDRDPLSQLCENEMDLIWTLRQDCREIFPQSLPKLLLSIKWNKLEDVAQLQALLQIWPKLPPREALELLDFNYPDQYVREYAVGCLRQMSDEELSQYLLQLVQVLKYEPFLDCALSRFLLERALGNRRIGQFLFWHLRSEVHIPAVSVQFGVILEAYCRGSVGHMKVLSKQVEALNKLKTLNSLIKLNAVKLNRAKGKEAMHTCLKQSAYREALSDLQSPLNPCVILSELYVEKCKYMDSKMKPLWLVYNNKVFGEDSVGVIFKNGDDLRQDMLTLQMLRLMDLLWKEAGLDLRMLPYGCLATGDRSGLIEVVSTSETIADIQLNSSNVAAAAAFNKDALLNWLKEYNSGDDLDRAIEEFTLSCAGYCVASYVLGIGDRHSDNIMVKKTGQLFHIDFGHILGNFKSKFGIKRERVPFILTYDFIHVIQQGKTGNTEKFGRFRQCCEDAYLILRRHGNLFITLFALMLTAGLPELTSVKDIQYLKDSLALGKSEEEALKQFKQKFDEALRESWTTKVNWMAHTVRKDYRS

Kd (kinase enzymes [1]) [nM]	Kd (kinase enzymes [2]) [nM]	Kd (kinase enzymes [3]) [nM]	IC50 ([4]; Homo sapiens, PC-3, 1 h) [nM]	IC50 ([5]; Homo sapiens, PC-3, 1 h) [nM]	Kd (PI3Kβ) [nM]	Kd (PI3Kδ) [nM]	melting point [°C]	IC50 [4] [nM]	IC50 [5] [nM]	Compound
> 30200	13800	> 30200	> 513	> 513	4790	> 30200	200	–	–	CC(Nc1cc(F)c(C(F)(F)F)c(F)c1)c1cc(C(=O)NCCO)cc2ncc(N3CCOCC3)nc12 (centres unmarked) [Compound 223]
1660	6610	21400	–	–	5	912	118	44	98	COCCNC(=O)c1cc(C(C)Nc2cc(F)cc(F)c2)c2nc(N3CCOCC3)cnc2c1 (single isomer, unassigned) [Compound 203]
3550	3890	18600	79	87	9	457	138	–	–	CC(Nc1ccc(F)c(F)c1)c1cc(CO)cc2ncc(N3CCOCC3)nc12 (centres unmarked) [Compound 303]
2090	2880	> 30200	13	20	1	117	80	–	–	CN[C@H]1CCN(C(=O)c2cc(C(C)Nc3ccc(F)c(F)c3)c3nc(N4CCOCC4)cnc3c2)C1 (mixture of isomers) [Compound 365]
> 30200	> 30200	> 30200	–	–	3310	28800	147	> 513	> 513	CC(Oc1ccc(F)c(F)c1)c1cc(C(=O)N2CCN3CCC[C@H]3C2)cc2ncc(N3CCOCC3)nc12 (single isomer, unassigned) [Compound 369b]
7240	6310	30900	> 513	> 513	309	7760	80	–	–	Cc1ccc(NC(C)c2cc(C(=O)NCCO)cc3ncc(N4CCOCC4)nc23)cc1F (centres unmarked) [Compound 295]
288	9330	> 30200	11	20	1	138	80	–	–	CC(Nc1cc(F)cc(F)c1)c1cc(C(=O)N2CCNC(C(F)(F)F)C2)cc2ncc(N3CCOCC3)nc12 (centres unmarked) [Compound 237]
11200	15500	> 30200	200	> 513	22	3160	171	–	–	CC(Oc1cc(F)cc(F)c1)c1cc(C(=O)NCCO)cc2ncc(N3CCOCC3)nc12 (centres unmarked) [Compound 198]
832	4680	> 30200	8	18	1	174	118	–	–	CC(Nc1cccc(F)c1)c1cc(C(=O)N2CC[C@@H](O)C2)cc2ncc(N3CCOCC3)nc12 (single isomer, unassigned) [Compound 321a]
3630	25100	15500	> 513	> 513	1410	10700	80	–	–	CN(C)C(=O)c1cc(N2CCC2c2ccc(F)cc2)c2nc(N3CCOCC3)cnc2c1 (single isomer, unassigned) [Compound 397a]
9330	> 30200	> 30200	417	> 513	27	2950	95	–	–	CC(Nc1ccc(F)c(F)c1)c1cc(C(=O)N2CCN3CCC[C@H]3C2)cc2ncc(N3CCOCC3)nc12 (single isomer, unassigned) [Compound 287b]

Further lines, the compound ahead of its results:

Compound	Kd (kinase enzymes [1]) [nM]	Kd (kinase enzymes [2]) [nM]	Kd (kinase enzymes [3]) [nM]	IC50 ([4]; Homo sapiens, PC-3, 1 h) [nM]	IC50 ([5]; Homo sapiens, PC-3, 1 h) [nM]	Kd (PI3Kβ) [nM]	Kd (PI3Kδ) [nM]	melting point [°C]	IC50 [4] [nM]	IC50 [5] [nM]
CC(Nc1cccc(F)c1)c1cc(C(=O)N2CCC[C@H]2CO)cc2ncc(N3CCOCC3)nc12 (single isomer, unassigned) [Compound 116]	> 30200	> 30200	> 30200	–	–	2880	≥ 30200	332	> 513	> 513
CC(Nc1cc(F)cc(F)c1)c1cc(C(=O)NCCO)cc2ncc(N3CCOCC3)nc12 (single isomer, unassigned) [Compound 188]	851	2290	16200	–	–	1	182	80	15	22
COCCN(C)Cc1cc(C2CCCN2c2cc(F)cc(F)c2)c2nc(N3CCOCC3)cnc2c1 (centres unmarked) [Compound 112]	955	2400	> 30200	~62	174	1	204	80	–	–
CC(Nc1cc(F)cc(F)c1)c1cc(Br)cc2ncc(N3CCOCC3)nc12 (centres unmarked) [Compound 167]	17400	12900	> 30200	~427	> 513	26	7760	80	–	–
CC(Nc1cc(F)cc(F)c1)c1cc(CN2CC3(C2)CS(=O)(=O)C3)cc2ncc(N3CCOCC3)nc12 (single isomer, unassigned) [Compound 161]	> 30200	> 30200	> 30200	–	–	776	> 30200	228	> 513	> 513
CC(Nc1cc(F)c(F)c(F)c1)c1cc(C(=O)O)cc2ncc(N3CCOCC3)nc12 (centres unmarked) [Compound 170]	617	2240	4370	> 513	> 513	5	288	285	–	–
CC(Nc1cc(F)cc(F)c1)c1cc(C(=O)N2CCN(CC(F)(F)F)CC2)cc2ncc(N3CCOCC3)nc12 (centres unmarked) [Compound 171]	2190	> 30200	> 30200	102	155	3	575	125	–	–
CNCCNC(=O)c1cc(C(C)Oc2cc(F)cc(F)c2)c2nc(N3CCOCC3)cnc2c1 (single isomer, unassigned) [Compound 165]	1780	5490	14100	–	–	0.3	182	80	11	45
CN(C)C(=O)c1cc(C2CCCN2c2cccc(C(F)(F)F)c2)c2nc(N3CCOCC3)cnc2c1 (centres unmarked) [Compound 52]	6170	13800	> 30200	240	> 513	38	4900	80	–	–
OC[C@@H]1CCCN1Cc1cc(C2CCCN2c2cc(F)cc(F)c2)c2nc(N3CCOCC3)cnc2c1 (single isomer, unassigned) [Compound 77]	363	646	> 30200	~51	~76	0.3	100	80	–	–
CC(c1cc(C(=O)N2CCOCC2)cc2ncc(N3CCOCC3)nc12)N(C)c1cccc(F)c1 (centres unmarked) [Compound 105]	3890	28200	> 30200	138	302	8	871	161	–	–
